{"source": "paper PMC3898116", "about": "“FGT-1 is the major glucose transporter in C. elegans and is central to aging pathways” (Biochemical Journal, 2013)", "biological_target": "T1, hGLUT1 (Homo sapiens, UniProt P11166)", "T1 construct": "gene SLC2A1; untagged, expressed in Xenopus laevis oocytes from cRNA", "T1 sequence (P11166 1-492)": "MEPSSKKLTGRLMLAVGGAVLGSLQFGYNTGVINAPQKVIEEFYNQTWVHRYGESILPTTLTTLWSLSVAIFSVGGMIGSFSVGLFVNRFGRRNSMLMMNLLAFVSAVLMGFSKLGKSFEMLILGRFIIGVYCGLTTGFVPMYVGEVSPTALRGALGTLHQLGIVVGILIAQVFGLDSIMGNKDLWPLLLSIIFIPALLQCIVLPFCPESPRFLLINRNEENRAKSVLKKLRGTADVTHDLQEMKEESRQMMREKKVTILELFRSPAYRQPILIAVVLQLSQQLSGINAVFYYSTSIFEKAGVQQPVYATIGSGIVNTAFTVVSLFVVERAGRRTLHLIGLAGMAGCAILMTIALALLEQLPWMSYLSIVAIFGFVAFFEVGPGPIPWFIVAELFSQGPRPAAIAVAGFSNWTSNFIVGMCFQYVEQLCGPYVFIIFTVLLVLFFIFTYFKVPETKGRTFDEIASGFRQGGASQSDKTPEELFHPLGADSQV", "experiment": "[…]glucose uptake in Xenopus oocytes", "format": "cell-based", "details": "incomplete ND96 buffer, 60 min uptake; labelled compound", "data": [{"smiles": "OC[C@H]1OC(O)[C@H](O)[C@@H](O)[C@@H]1O", "note": "(stereo partly drawn) [D-glucose]", "values": [{"measurement": "[14C]glucose uptake in Xenopus oocytes", "result": "These proteins transport glucose at levels that are comparable with GLUT1 expressed in the same system"}]}]}
